Data on 9 compounds can be found in ChEMBL document CHEMBL6103618, “Discovery of Novel Oxazolo[4,3-f]purine Derivatives as Antitumor Agents through PPIA Interaction” (J Med Chem, 2025).

Data set [1] has as its target T1, Peptidyl-prolyl cis-trans isomerase A (Homo sapiens, UniProt P62937). The experiment in a line: Inhibition of PPIA (unknown origin) using N-succinyl-Ala-Ala-Pro-Phe-p-nitroanilide as substrate preincubated for 1 hr followed by substrate addition measured for 6 mins by absorbance based assay.
Data set [2] addresses T1, Peptidyl-prolyl cis-trans isomerase A. The data set can be described thus: Inhibition of PPIA (unknown origin).
For another data set, the system named is PANC-1. The experiment in a line: Antiproliferative activity against human PANC-1 cells assessed as inhibition of cell viability incubated for 48 hrs by CCK8 assay. Format: functional, cell-based. The note with it: PANC-1, 48 h.
The next data set deals with SW480. The data set can be described thus: Antiproliferative activity against human SW480 cells assessed as inhibition of cell viability incubated for 48 hrs by CCK8 assay. The data set is classed as functional, cell-based. The following applies: SW480, 48 h. A general note: Tetrazolium dyes change colour on reduction, which living cells bring about.
The subject of another data set is CT26. The data set can be described thus: Antiproliferative activity against mouse CT26 cells assessed as inhibition of cell viability incubated for 48 hrs by CCK8 assay. Format: functional, cell-based. The following applies: CT26, 48 h.
The subject of another data set is MCF7. The data set can be described thus: Antiproliferative activity against human MCF7 cells assessed as inhibition of cell viability incubated for 48 hrs by CCK8 assay. The data set is classed as functional, cell-based. The following applies: MCF7, 48 h.
The subject of another data set is HepG2. The data set can be described thus: Antiproliferative activity against human HepG2 cells assessed as inhibition of cell viability incubated for 48 hrs by CCK8 assay. The data set is classed as functional, cell-based. The note with it: HepG2, 48 h.
For another data set, the system named is HCT-116. The experiment in a line: Antiproliferative activity against human HCT-116 cells assessed as inhibition of cell viability incubated for 48 hrs by CCK8 assay. The note with it: HCT-116, 48 h. The data set is classed as functional, cell-based.
The test system of the next data set is HeLa. The experiment in a line: Antiproliferative activity against human HeLa cells assessed as inhibition of cell viability incubated for 48 hrs by CCK8 assay. Format: functional, cell-based.
The target in data set [3] is T1, Peptidyl-prolyl cis-trans isomerase A. The data set can be described thus: Binding affinity to PPIA (unknown origin) assessed as dissociation constant.
Data set [4] in a line: Toxicity in BALB/c mouse implanted with mouse CT26 cells assessed as histopathological change in spleen at 45 mg/kg, ip qd treated for 14 days by H and E staining based analysis. The data set is classed as organism-based. The note with it: in vivo, 336 h, time 14 day.
A short description of data set [5]: Toxicity in BALB/c mouse implanted with mouse CT26 cells assessed as histopathological change in kidney at 45 mg/kg, ip qd treated for 14 days by H and E staining based analysis. The data set is classed as organism-based. The note with it: in vivo, 336 h, time 14 day.
Data set [6] in a line: Toxicity in BALB/c mouse implanted with mouse CT26 cells assessed as histopathological change in heart at 45 mg/kg, ip qd treated for 14 days by H and E staining based analysis. Format: organism-based. The following applies: in vivo, 336 h, time 14 day.
Data set [7] is described as follows: Toxicity in BALB/c mouse implanted with mouse CT26 cells assessed as histopathological change in lung at 45 mg/kg, ip qd treated for 14 days by H and E staining based analysis. The data set is classed as organism-based. The note with it: in vivo, 336 h, time 14 day.
The nature of data set [8]: Toxicity in BALB/c mouse implanted with mouse CT26 cells assessed as change in body weight at 45 mg/kg, ip qd treated for 14 days. The data set is classed as organism-based. The following applies: in vivo, 336 h, time 14 day.
A short description of data set [9]: Toxicity in BALB/c mouse implanted with mouse CT26 cells assessed as histopathological change in liver at 45 mg/kg, ip qd treated for 14 days by H and E staining based analysis. The data set is classed as organism-based. The note with it: in vivo, 336 h, time 14 day.

T1 sequence (P62937 whole entry): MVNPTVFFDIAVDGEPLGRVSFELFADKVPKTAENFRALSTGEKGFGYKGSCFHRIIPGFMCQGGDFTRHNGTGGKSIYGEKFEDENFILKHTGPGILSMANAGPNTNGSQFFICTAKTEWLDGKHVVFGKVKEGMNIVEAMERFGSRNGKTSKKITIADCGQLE

A word on the IC50: it is the point on the concentration scale where inhibition reaches its midpoint. With `CC[C@H]1C[C@H](C)[C@@]2(NC1=O)O[C@@H](C[C@H](O)[C@@H](C)CC/C=C/C=C(\C)[C@@H]1C/C=C/C=C/[C@H](O)[C@H](C)[C@@H](O)[C@@H](CCC(C)=O)C(=O)N[C@@H](C(C)C)C(=O)N[C@@H](Cc3cc(O)cc(F)c3)C(=O)N3CCC[C@H](N3)C(=O)O1)[C@H](C)[C@H](O)[C@@H]2C`, in data set [1], the concentration for half-maximal inhibition (IC50) was determined as 0.49 nM.

The Ki is a dissociation constant, usually derived from enzyme kinetics or from competition with a known ligand. A lower Ki goes with higher affinity. On to `C.CC[C@@H]1NC(=O)[C@H]([C@H](O)[C@H](C)CCCCCCNC(C)=O)N(C)C(=O)[C@H](C(C)C)N(C)C(=O)[C@H](CC(C)C)N(C)C(=O)[C@H](CC(C)C)N(C)C(=O)[C@@H](C)NC(=O)[C@H](C)NC(=O)[C@H](CC(C)C)N(C)C(=O)[C@H](C(C)C)NC(=O)[C@H](CC(C)C)N(C)C(=O)[C@@H](C)N(C)C1=O`, for which the affinity in [2], expressed as Ki, was 2.5 nM.

For `C=C(C(=O)OC)N1c2nc(Cl)nc(Cl)c2N2C(c3ccccc3Cl)OC(C(=O)OCC)(C(=O)OCC)C12` (racemic), the half-inhibitory concentration (IC50) in the data set with PANC-1 amounted to 4.46 µM; in the data set on SW480, 5.43 µM; with CT26 it was 1120 nM; in the data set with MCF7 it was 1.9 µM; in the data set with HepG2 it was 3.25 µM; in the data set with HCT-116, 670 nM. Also, the IC50 in the data set on HeLa was determined as 890 nM.

`C=C(C(=O)OCC)N1c2nc(Cl)nc(Cl)c2N2C(c3ccccc3Br)OC(C(=O)OCC)(C(=O)OCC)C12` (racemic): the IC50 turned out to be 6160 nM in the data set with HCT-116 and 4780 nM in the data set on HeLa.

With `C=C(C(=O)OC)N1c2nc(Cl)nc(Cl)c2N2C(c3ccccc3Br)OC(C(=O)OCC)(C(=O)OCC)C12` (racemic), the IC50 with PANC-1 turned out to be 4.61 µM; in the data set with SW480, 6.99 µM; in the data set with CT26, 2500 nM; in the data set on MCF7, 3.49 µM; with HepG2 it was 4.87 µM; in the data set on HCT-116, 3110 nM. The IC50 with HeLa stood at 2150 nM.

Take `C=C(C(=O)OC)N1c2nc(Cl)nc(Cl)c2N2C(c3ccccc3)OC(C(=O)OCC)(C(=O)OCC)C12` (racemic): the IC50 was determined as 2180 nM in the data set with HCT-116 and 2360 nM with HeLa.

Broadly, the Kd is a measure of binding affinity in units of concentration. Turning to `C/C=C/C[C@@H](C)[C@@H](O)[C@H]1C(=O)N[C@@H](CC)C(=O)N(C)[C@H](C)C(=O)N(CC)[C@@H](C(C)C)C(=O)N[C@@H](C(C)C)C(=O)N(C)[C@@H](CC(C)C)C(=O)N[C@@H](C)C(=O)N[C@H](C)C(=O)N(C)[C@@H](CC(C)C)C(=O)N(C)[C@@H](CC(C)C)C(=O)N(C)[C@@H](C(C)C)C(=O)N1C` [ALISPORIVIR], the Kd in data set [3] came out at 8 nM.

Turning to `C/C=C/C[C@@H](C)[C@@H](O)[C@H]1C(=O)N[C@@H](CC)C(=O)N(C)CC(=O)N(C)[C@@H](CC(C)C)C(=O)N[C@@H](C(C)C)C(=O)N(C)[C@@H](CC(C)C)C(=O)N[C@@H](C)C(=O)N[C@H](C)C(=O)N(C)[C@@H](CC(C)C)C(=O)N(C)[C@@H](CC(C)C)C(=O)N(C)[C@@H](C(C)C)C(=O)N1C` [CYCLOSPORINE], the 50% inhibitory concentration (IC50) with PANC-1 came out at 13.3 µM; with SW480, 5.16 µM; in the data set with CT26 it was 11400 nM; with MCF7, 6.12 µM; in the data set on HepG2, 12.3 µM; in the data set on HeLa, 2170 nM.

Regarding `O=c1[nH]cc(F)c(=O)[nH]1` [FLUOROURACIL], the IC50 in the data set on PANC-1 was 14.7 µM; with SW480, 14.2 µM; in the data set with CT26, 3350 nM; in the data set on HepG2, 21.9 µM; in the data set on HeLa, 4480 nM. Also, the Activity result is recorded as “Non-toxic” in data set [4]; “Non-toxic” in data set [5]; “Non-toxic” in data set [6]; “Non-toxic” in data set [7]; “Toxic” in data set [8]; “Non-toxic” in data set [9].
